Measurements: PubChem BioAssay AID1918957 (Molecular Pharmacology Branch, DTP, NCI, 2023)
pIC50: −log10 of the molar value.

Tested on: NCI-H1876 complex spheroid viability
Assay: Anticancer human tumor NCI-H1876 cell line growth inhibition [LSD1];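 further: spheroids exposed to compounds for one week before readout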;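 on viability, T/C: 100% = DMSO vehicle-treated spheroids so lower means fewer viable cells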
Conditions: for pIC50: curve of first compound; for viability, T/C: stronger effect = lower value
In short: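 Complex spheroids of tumor cells with HUVEC and human MSCs, exposed to iadademstat combined with other agents. Each agent tested in half-log steps from near clinical Cmax (else 10 microM top), DMSO ≤0.25%.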

[1] = second compound 0.1 µM, first compound 0.000316 µM
[2] = second compound 0.1 µM, first compound 0.001 µM
[3] = second compound 0.1 µM, first compound 0.00316 µM
[4] = second compound 0.1 µM, first compound 0.01 µM
[5] = second compound 0.1 µM, first compound 0.0316 µM
[6] = second compound 0.1 µM, first compound 0.1 µM
[7] = second compound 0.316 µM, first compound 0.000316 µM
[8] = second compound 0.316 µM, first compound 0.001 µM
[9] = second compound 0.316 µM, first compound 0.00316 µM
[10] = second compound 0.316 µM, first compound 0.01 µM
[11] = second compound 0.316 µM, first compound 0.0316 µM
[12] = second compound 0.316 µM, first compound 0.1 µM
[13] = second compound 1 µM, first compound 0.000316 µM
[14] = second compound 1 µM, first compound 0.001 µM
[15] = second compound 1 µM, first compound 0.00316 µM
[16] = second compound 1 µM, first compound 0.01 µM
[17] = second compound 1 µM, first compound 0.0316 µM
[18] = second compound 1 µM, first compound 0.1 µM
[19] = second compound 3.16 µM, first compound 0.000316 µM
[20] = second compound 3.16 µM, first compound 0.001 µM
[21] = second compound 3.16 µM, first compound 0.00316 µM
[22] = second compound 3.16 µM, first compound 0.01 µM
[23] = second compound 3.16 µM, first compound 0.0316 µM
[24] = second compound 3.16 µM, first compound 0.1 µM
[25] = second compound 10 µM, first compound 0.000316 µM
[26] = second compound 10 µM, first compound 0.001 µM
[27] = second compound 10 µM, first compound 0.00316 µM
[28] = second compound 10 µM, first compound 0.01 µM
[29] = second compound 10 µM, first compound 0.0316 µM
[30] = second compound 10 µM, first compound 0.1 µM

SMILES | pIC50 (second compound 0.1 µM) | pIC50 (second compound 0.316 µM) | pIC50 (second compound 1 µM) | pIC50 (second compound 3.16 µM) | pIC50 (second compound 10 µM) | viability, T/C [1] [%] | viability, T/C [2] [%] | viability, T/C [3] [%] | viability, T/C [4] [%] | viability, T/C [5] [%] | viability, T/C [6] [%] | viability, T/C [7] [%] | viability, T/C [8] [%] | viability, T/C [9] [%] | viability, T/C [10] [%] | viability, T/C [11] [%] | viability, T/C [12] [%] | viability, T/C [13] [%] | viability, T/C [14] [%] | viability, T/C [15] [%] | other results
CC(C)CC(NC(=O)C(Cc1ccccc1)NC(=O)c1cnccn1)B(O)O (stereo not given) + NC1CC1c1ccc(-c2cccc(O)c2)cc1 | 9.39 | 9.35 | 9.35 | 9.43 | > 9.50 | 63.8 | 0.34 | 0.19 | 0.14 | 0.14 | 0.24 | 70.6 | 0.44 | 0.17 | 0.12 | 0.15 | 0.21 | 71.2 | 0.42 | 0.22 | viability, T/C [16]: 0.31%; viability, T/C [17]: 0.13%; viability, T/C [18]: 0.22%; viability, T/C [19]: 58.4%; viability, T/C [20]: 0.35%; viability, T/C [21]: 0.22%; viability, T/C [22]: 0.16%; viability, T/C [23]: 0.14%; viability, T/C [24]: 0.24%; viability, T/C [25]: 41.6%; viability, T/C [26]: 0.43%; viability, T/C [27]: 0.48%; viability, T/C [28]: 0.28%; viability, T/C [29]: 0.26%; viability, T/C [30]: 0.34%
CC(C)CC(NC(=O)CNC(=O)c1cc(Cl)ccc1Cl)B1OC(=O)CC(CC(=O)O)(C(=O)O)O1 (stereo not given) + NC1CC1c1ccc(-c2cccc(O)c2)cc1 | 8.11 | 8.13 | 8.13 | 8.13 | 8.18 | 98.9 | 103 | 105 | 34.6 | 1.61 | 0.3 | 108 | 101 | 97.3 | 33.7 | 1.47 | 0.31 | 105 | 103 | 102 | viability, T/C [16]: 32.1%; viability, T/C [17]: 1.86%; viability, T/C [18]: 0.31%; viability, T/C [19]: 110%; viability, T/C [20]: 106%; viability, T/C [21]: 98.4%; viability, T/C [22]: 32.5%; viability, T/C [23]: 1.08%; viability, T/C [24]: 0.3%; viability, T/C [25]: 103%; viability, T/C [26]: 102%; viability, T/C [27]: 87%; viability, T/C [28]: 29.6%; viability, T/C [29]: 0.75%; viability, T/C [30]: 0.39%
